Assay results published in patent publication US4055640A, “Compositions and methods for controlling the growth of bacteria, fungi and algae using certain derivatives of N-(2,2-dichlorovinyl)salicylamides” (Nippon Kayaku Co., Ltd., priority 1975, dated 1977).

Assays:
[1] = test system: Fusarium wilt of cucumber; assay: Exterminating test on Fusarium wilt of cucumber (Experimental Example 4); assay type: in vivo, Fusarium oxysporum f, cucumerinum; conditions: 500 ppm, soil drench 100 ml per pot, two weeks; for pest or weed control at 500 ppm: Fusarium, soil, 336 h, read-out: Percentage of healthy seedlings
Experimental: Exterminating test on Fusarium wilt of cucumber Twenty (20) grams of infected soil was added uniformly into each pot which was filled with steam sterilized field soil, then 18 seeds of cucumber (variety; Tokiwazibai) were sowed in each pot. Eighty percent (80%) wettable powder of the present invention was diluted with water to obtain a suspension, and each pot was drenched with the suspension in an amount of 100 ml. Fifty percent (50%) wettable powder of methyl-1-(butylcarbamoyl) 2-benzimidazol carbamate (hereinafter referred to as Benlate) on the market was used as a control and tested by the same method. After two weeks of planting, degrees attacked by the pathogen was observed and a "percentage of healthy seedlings" was calculated as follows: [formula]

[2] = test system: Rhizoctonia solani (damping-off of cucumber); assay: Exterminating test on damping-off of cucumber (Experimental Example 3); assay type: in vivo; conditions: soil drench 50 ml per pot, 10 days; for pest or weed control at 1000 ppm: Rhizoctonia solani, soil, 240 h, 1,000 ppm, read-out: Percentage of healthy seedlings
Experimental: Exterminating test on damping-off of cucumber
The pots (diameter, 12 cm) were filled with field soil and then soil infected by adding Rhizoctonia solani in an amount of 5 grams per pot uniformly into the pots. Thereafter, 10 seeds of cucumber (variety: Azumamidori) were sown in each pot.
Eighty percent (80%) wettable powder of the present invention was diluted with water to obtain a suspension and each pot was drenched with the suspension in an amount of 50 milliliters. Then, the pots were transferred to the greenhouse. Fifty percent (50%) wettable powder of pentachloronitro benzene (hereinafter referred to as PCNB) on the market was used as a control and tested by the same method. After 10 days of the inoculation, degrees attacked by the pathogen were observed and a "Percentage of healthy seedlings" was calculated. The "Percentage of healthy seedlings" was calculated as follows: [formula]

[3] = test system: seedling blight of rice plant (pathogen Fusarium sp. and Rhizoctonia sp.); assay: Exterminating test on seedling blight of rice plant (Experimental Example 1); assay type: in vivo; conditions: soil, 408 h, 0.25g/box a.i., 5% dust mixed with soil; read-out: Percentage of healthy seedlings
Experimental: Exterminating test on seedling blight of rice plant Nursery boxes (60 × 30 × 3 cm) were filled with soil which were contaminated with pathogen (Fusarium sp. and Rhizoctonia sp.) The dust in which the present compound was contained in a ratio of 5% by weight was added in the box in a ratio of 5 grams per box and mixed well with soil. Thereafter, seeds of rice plant (variety: Nihonbare) were sowed in drills at a rate of 0.3 liter per box and grown up in a lighting chamber at 17° C. After 7 days from the sowing, the boxes were carried out in the field. Furthermore, 10 days thereafter the observations were made. Four percent (4%) dust of 3-hydroxy-5-methyl isoxazol (hereinafter referred to as hydroxyisoxazol) on the market was used as a control and tested by the same method. The test results are shown in Table 2 with a "percentage of healthy seedlings". The percentage of healthy seedlings was calculated as follows: […]

[4] = test system: Aspergillus niger, Penicillium citrinum, Cladosporium harbarum and chaetomium globosum; assay: Degree of growth inhibition of fungi on treated beach plates (Example 25); assay type: cell-based; set-up: scale not given here; conditions: numerical rating, 2 weeks
Experimental: The emulsifiable concentrates which were prepared by Example 20 were diluted with water 400 times and 800 times to form emulsions.
The square plates of beach of which a side was 5 cm long and thickness was 5 mm were dipped into the emulsion for 2 minutes and dried for 24 hours at room temperature.
The square plates were placed on the surface of agar plates. The suspensions which contained spores of Aspergillus niger, Penicillium citrinum, Cladosporium harbarum and chaetomium globosum were respectively sprayed on the agar plates and the square plates.
The test fungi were cultivated in the incubator at the humidity of 95% and the temperature of 28° C for 2 weeks. The degree of growth inhibition is defined in terms of the following numerical ratings.

[5] = test system: Xanthomonas citri (citrus canker); assay: Exterminating test on citrus canker (Experimental Example 6); assay type: in vivo; conditions: Xanthomonas citri, 336 h
Experimental: (§1) Exterminating test on citrus canker. 4-year-old summer orange seedlings, planted in unglazed pots having a diameter of 20 cm, were employed in this test. Eighty percent (80%) wettable powder of the present invention was diluted with water, and sprayed over the seedlings in an amount of 50 ml per pot. The leaves of the seedlings were inoculated Xanthomonas citri by means of a needle. After the inoculation, the seedlings were maintained in a moist chamber at 25° C for 24 hours. Then the pots were transferred into the greenhouse. Streptomycin 20% wettable powder was used as a control, and tested by the same method. After 2 weeks after the inoculation, degrees of disease attack were observed, and an "Effect Index" was calculated as follows: [formula]

summer orange seedlings = assay: Phytotoxicity on summer orange seedlings (Experimental Example 6); assay type: in vivo
Experimental: as §1

[6] = test system: Cladosporium cucumerinum (cucumber scab); assay: Exterminating test on cucumber scab (Experimental Example 2); assay type: in vivo; set-up: scale not given here; conditions: 5 days after inoculation
Experimental: Exterminating test on cucumber scab
(§2) The cucumber seeds (variety: Sagamihanjiro) were sown in pots (diameter 18 cm). Eighty percent (80%) wettable powder (contents of active compound: 80%) of the present invention was diluted with water to obtain a suspension. The suspension was sprayed over the cucumber seedlings of the stage of 3-4 leaves in an amount of 20 ml per pot. After 24 hours, these pots were inoculated by means of spray of spore suspension of Cladosporium cucumerinum. The thus-inoculated seedlings were placed in a moist chamber at 20° C for 24 hours. The pots were continuously kept in a greenhouse at 20° C. The following wettable powders on the market were used as controls.
70% wettable powder of 1,2-bis (3-methoxy carbonyl-2-thioureid) benzene (hereinafter referred to as "thiophanate methyl") on the market.
75% wettable powder of ethylene bis (dithiocarbamic acid) manganese (hereinafter referred to as "maneb") on the market. After 5 days of the inoculation, degrees attached by the pathogen were observed and the results were shown in Table 3 with an "Infected Index". The "Infected Index" was calculated as follows: [formula] A : Number of leaves which were killed by hard attack B : Number of leaves severely attacked
C : number of leaves slightly attacked
D : number of healthy leaves

[7] = test system: seedlings of kidney beans (variety: Orient); assay: Phytotoxicity on kidney beans (Experimental Example 5); assay type: in vivo; conditions: 500 ppm
[8] = test system: cucumber seedlings (variety: Sagamihanjiro); assay: Phytotoxicity on cucumber seedlings (Experimental Example 2); assay type: in vivo
Experimental: as §2

[9] = test system: botrytis cinerea (gray mold); assay: Exterminating test on gray mold of tomato (Experimental Example 5); assay type: in vivo; conditions: 500 ppm, 48 hours after inoculation, kidney bean leaves
Experimental: Exterminating test on gray mold of tomato The seedlings of kidney beans (variety: Orient) of 5-6 leaves stage were employed in this test. Eighty percent (80%) wettable powder of the present invention was diluted with water and sprayed over the seedlings in an amount of 10 ml per pot. The leaves were cut from the plant at 24 hours after spraying, and placed in the petri dishes (12 cm in diameter). Thereafter disks (5 mm in diameter) were cut with a cork borer from potato dextrose agar on which the pathogen (botrytis cinerea) was cultured. The disks were placed on the leaves. The dishes were placed in such a moistural condition as to cause the pathogen to propagate. Thiophanate methyl 70% wettable powder on the market was used as a control and tested by the same method. After forty eight (48) hours after inoculation, diameters of the lesions were observed, and an "Effect Index" was calculated as follows; [formula]

COC(=O)Oc1ccccc1C(=O)NC=C(Cl)Cl [Compound No. 16, O-methoxycarbonyl-N-(2,2-dichlorovinyl) salicylamide]
pest or weed control at 500 ppm [1]: 38.2% | pest or weed control at 1000 ppm [2]: 100% | Percentage of healthy seedlings at 0.25 g/box [3]: 71.5%

CC(=O)Oc1ccc(Br)cc1C(=O)NC=C(Cl)Cl [compound 8]
pest or weed control at 500 ppm [1]: 73.3% | pest or weed control at 1000 ppm [2]: 75% | Degree of growth inhibition ([4]; 0.0125 %): 3 | Degree of growth inhibition ([4]; 0.025 %): 3 | Percentage of healthy seedlings at 0.25 g/box [3]: 71.3%

[H]/N=C(/N)N[C@H]1[C@H](O)[C@@H](O)[C@H](O[C@@H]2O[C@@H](C)[C@](O)(C=O)[C@H]2O[C@@H]2O[C@@H](CO)[C@H](O)[C@@H](O)[C@@H]2NC)[C@@H](N/C(N)=N\[H])[C@@H]1O [Streptomycin, reference compound]
pest or weed control at 200 ppm ([5]; read-out: Effect Index, 200 ppm, 2 weeks after inoculation): 28.7% | Phytotoxicity (summer orange seedlings; 200 ppm): Nil

O=C(NC=C(Cl)Cl)c1cc(Br)ccc1O [compound 22]
Phytotoxicity (summer orange seedlings; 1,000 ppm): Nil

COC(=O)NC(=S)Nc1ccccc1NC(=S)NC(=O)OC [Thiophanate methyl, 1,2-bis (3-methoxy carbonyl-2-thioureid) benzene, reference compound]
Infected Index ([6]; 500 ppm): 14.6 | Phytotoxicity [7]: Nil | Phytotoxicity ([8]; 500 ppm): Nil | Effect Index [9]: 82

CC(=O)Oc1c(C(=O)NC=C(Cl)Cl)cccc1[N+](=O)[O-] [compound 35]
pest or weed control at 500 ppm [1]: 79% | pest or weed control at 1000 ppm [2]: 95% | Percentage of healthy seedlings at 0.25 g/box [3]: 71.2%

Cc1ccc(C(=O)NC=C(Cl)Cl)c(O)c1 [compound 5]
pest or weed control at 1000 ppm ([5]; read-out: Effect Index, 1,000 ppm, 2 weeks after inoculation): 98.2% | pest or weed control at 500 ppm [1]: 58.9% | Infected Index ([6]; 500 ppm): 10.7 | Phytotoxicity (summer orange seedlings; 1,000 ppm): Nil | pest or weed control at 1000 ppm [2]: 80% | Phytotoxicity ([8]; 500 ppm): Nil | Percentage of healthy seedlings at 0.25 g/box [3]: 62%

S=C([S-])NCCNC(=S)[S-].[Mn+2] [Maneb, ethylene bis (dithiocarbamic acid) manganese, reference compound]
Infected Index ([6]; 1,500 ppm): 12.5 | Phytotoxicity ([8]; 1,500 ppm): Nil

O=C(NC=C(Cl)Cl)c1cc(Br)ccc1[O-].O=C(NC=C(Cl)Cl)c1cc(Br)ccc1[O-].[Cu+2] [compound 27]
Percentage of healthy seedlings [1]: 58.0% | Percentage of healthy seedlings ([2]; 1,000 ppm): 85%

O=C(NC=C(Cl)Cl)c1cc(Cl)cc(Cl)c1O [compound 33]
pest or weed control at 500 ppm [1]: 48% | Percentage of healthy seedlings at 0.25 g/box [3]: 70.4%
